Where two headings read alike, the source gives them in different places.

The format of series [1] is physicochemical. The note with it: for Cyazofamid Technical, 0 Day / Cyazofamid Technical, 14 Day: storage at 54° C. As for the experimental part: Experiment: Cyazofamid technical was mixed with Na2CO3 (Inorganic base) in one batch and with HMT (organic base) in the other. Both the samples were kept at 54° C. for 14 days. After 14 days, the cyazofamid content in both the samples was analyzed. […] The stability of cyazofamid technical was tested in the presence of an inorganic base and compared with the stability in the presence of an organic base, with the following results: […]

The format of series [2] is physicochemical. The method, then:
The following compositions comprising cyazofamid and Mancozeb were prepared, with the different stabilizers substituted. The AHS stability of these formulations was tested.
The formulation prepared according to Example 1 (adjusted for purity of the technical material) was modified to replace the HMT content with 1.0% sodium carbonate. The stability of both the formulations were tested, with the following results: […]

[3] abbreviates: Example 1 formulation with HMT replaced by 1.0% Na2CO3.
[4] abbreviates: Example 1 formulation with HMT replaced by 1.0% Na2CO3, 14 D AHS at 54° C.
The mark [5] stands for this setting: Example 1 formulation, presence of 1.0% HMT.
Setting [6] is: Example 1 formulation, presence of 1.0% HMT, 14 D AHS at 54° C.

As for `Cc1ccc(-c2c(Cl)nc(C#N)n2S(=O)(=O)N(C)C)cc1` [Cyazofamid, 4-chloro-2-cyano-N,N-dimethyl-5-p-tolylimidazole-1-sulfonamide], the “Cyazofamid Technical, 0 Day” value in series [1] (HMT 0.5%) is recorded as 95.10; in series [1] (Na2CO3 0.5%) it was 95.98. The “Cyazofamid Technical, 14 Day” value in series [1] (HMT 0.5%) is given as 94.27; in series [1] (Na2CO3 0.5%), 92.38. The “Cyazofamid content, 0 D” value in series [1] (Presence of 0.5% HMT) is given as 95.1 %, w/w; in series [1] (Presence of 0.5% Na2CO3) it was 95.98 %, w/w. The “Cyazofamid content, 14 D AHS at 54° C.” value in series [1] (Presence of 0.5% HMT) is 94.27 %, w/w; in series [1] (Presence of 0.5% Na2CO3), 92.38 %, w/w. For the same compound, the “drop in cyazofamid concentration upon accelerated storage” value (2 weeks at 54° C.) came to 12.5%. Besides, the “Degradation with respect to storage at ambient condition” value (14 days) was 12.87%. For the same compound, where the note is “glass bottle, air tight plug and cap, 10° C., 14 days”, the “Purity after 14 days of storage at 10° C.” value is reported as 95.36. Moreover, for the setting “glass bottle, air tight plug and cap, 54 ± 2° C., 14 days”, the “Purity after 14 days of storage at 54 ± 2° C.” value is recorded as 83.25. For the same compound, the “Purity after 14 days, Room temperature (30-35° C.)” value (glass bottle, air tight plug and cap, room temperature (30-35° C.), 14 days) stood at 95.55. In addition, in series [2] (14 day), the “Degradation (%)” value came out at 11.16%. The “Active content in formulation, 0 D” value is 6.27 %, w/w in series [2] (setting [3]) and 5.59 %, w/w in series [2] (setting [5]). The “Active content in formulation, 14 D AHS at 54° C.” value is listed as 5.57 %, w/w in series [2] (setting [4]) and 5.43 %, w/w in series [2] (setting [6]).
In the case of Mancozeb, the “Active content in formulation, 0 D” value is on record as 70.67 %, w/w in series [2] (setting [3]) and 70.34 %, w/w in series [2] (setting [5]). The “Active content in formulation, 14 D AHS at 54° C.” value in series [2] (setting [4]) was 70.49 %, w/w; in series [2] (setting [6]) it was 70.14 %, w/w. Also, the “Degradation (%)” value came to 0.25% in series [2] (setting [4]) and 0.28% in series [2] (setting [6]).

Source of the values: patent US9578875B2, “Fungicidal composition” (priority 2013, dated 2017).
